Measurements as given in paper PMC6934184, “Selective DNA-PKcs inhibition extends the therapeutic index of localized radiotherapy and chemotherapy” (The Journal of Clinical Investigation, 2019).

Target: T1, RPS6KA3 (RSK2) (Homo sapiens, UniProt P51812)
T1 construct: purchased Thermo Fisher Scientific (Life Technologies) SelectScreen
Assay: SelectScreen Z'LYTE
Format: biochemical
In short: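 Percent values come from Thermo SelectScreen profiling of NU5455, combining activity and binding assays. CSF1R was run in Z'LYTE format at Km app ATP, and CAMK1 in Adapta format with ATP listed at 10.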

T1 sequence (P51812 whole entry): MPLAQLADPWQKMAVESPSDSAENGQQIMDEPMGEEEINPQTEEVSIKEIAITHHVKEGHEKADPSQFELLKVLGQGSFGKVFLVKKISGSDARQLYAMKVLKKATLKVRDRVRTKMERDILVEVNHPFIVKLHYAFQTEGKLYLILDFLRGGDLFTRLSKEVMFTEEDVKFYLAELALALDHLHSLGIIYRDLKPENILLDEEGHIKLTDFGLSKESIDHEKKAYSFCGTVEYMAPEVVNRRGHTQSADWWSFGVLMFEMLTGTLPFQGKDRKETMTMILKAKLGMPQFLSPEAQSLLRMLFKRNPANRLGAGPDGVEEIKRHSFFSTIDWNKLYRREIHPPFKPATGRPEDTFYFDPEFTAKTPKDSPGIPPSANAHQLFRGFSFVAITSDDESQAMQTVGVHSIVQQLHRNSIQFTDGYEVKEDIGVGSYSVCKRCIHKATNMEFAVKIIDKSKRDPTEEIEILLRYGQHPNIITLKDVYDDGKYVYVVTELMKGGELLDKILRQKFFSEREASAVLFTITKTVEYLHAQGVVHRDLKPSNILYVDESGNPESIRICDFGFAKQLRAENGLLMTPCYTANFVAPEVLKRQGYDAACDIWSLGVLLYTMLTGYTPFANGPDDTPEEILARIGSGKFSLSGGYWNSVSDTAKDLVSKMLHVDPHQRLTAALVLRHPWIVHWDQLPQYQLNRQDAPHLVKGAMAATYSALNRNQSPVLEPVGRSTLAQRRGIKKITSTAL

Question: Which inhibition at 1 µM does the source give for CN(C(=O)CN1CCOCC1)c1ccc2sc3c(-c4cccc5c(=O)cc(N6CC7CCC(C6)O7)oc45)cccc3c2c1 [NU5455] here?
Answer: The inhibition at 1 µM was 2.1%.
